{"source": "patent US10238688B2", "about": "“Combination therapies for bladder cancer” (GENEDIA BIOTECH CO. LTD., priority 2015, dated 2019);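 on digitalized pathway activity, Notch: code −1 means repressed below 0.5-fold of 5637 cells or no-drug control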", "key": {"Biu87": {"tested_on": "Biu87", "experiment": "MTT cell survival / IC50, Biu87 cells", "format": "cell-based, human", "method": "(§1) The clinical grade of the chemotherapeutics (NCI Dictionary of Cancer Terms) was provided by the First Affiliated Hospital of Harbin Medical University: Pirarubicin (Pi, Wanle, Shenzhen), Paclitaxel (Pa, Taiji, Sichuan), Adriamycin (Ad, Pfizer, Jiangsu), Epirubicin Hydrochloride (EH, Haizheng, Zhejiang), Hydroxycamptothecin (Hy, Lishizhen, Hubei), Cisplatin (Ci, Haosen, Jiangsu), Gemcitabine (Ge, Haosen, Jiangsu) and Mitomycin (Mi, Haizheng, Zhejiang). The drug induced cell death was determined by a thiazolyl […] (MTT, 490 nm reading) based cell proliferation assay in the cultured cells following treatment by various concentrations of drugs for 72 hours. The relative chemoresistance to each drug of all cell lines was calculated with the lowest IC50 as a reference. The overall chemoresistance of each cell line was described as “chemoresistance index”, the numerator of the total relative IC50 to all the drugs over the number of drugs to rank the overall resistance state of each cell line to the six chemotherapeutics collectively.\n(§2) The relative IC50 (fold) of each drug of all nine cell lines was normalized to the lowest IC50 in the most sensitive cell line (FIG. 2G), to describe the single drug resistance of cell lines. The overall chemoresistance of each cell line, a “chemoresistance index” (the numerator of the total relative IC50 over the number of drugs) (FIG. 2G) were calculated to rank the overall resistance state of each cell line to this six chemotherapeutics.\n(§3) Twenty six-drug combinations at the indicated doses were initially generated through a random number generator (using MATLAB MathWorks©, Natick, Mass., U.S.) (The upper half of Table 1). The cell survival (% over the not drug control) of treated cells was determined and then used for a calculation of the average cumulative cell survival (%, ACS: the sum of cell survival (%) per combination divided by the number of cell lines tested). ACS<30% was used to separate the effective from the not-effective combinations."}, "5637": {"tested_on": "5637", "experiment": "MTT cell survival / IC50, 5637 cells", "format": "cell-based, human", "method": "as §1, §2, §3"}, "J-82": {"tested_on": "J-82", "experiment": "MTT cell survival / IC50, J-82 cells", "format": "cell-based, human", "details": "J82; Table S3; ng/ml: Pi 40, Pa 160, EH 250, Ci 1500, Mi 200; 1=Ci/Mi, 2=EH/Ci/Mi, 3=Pa/Ci/Mi, 4=Pi/Ci/Mi", "method": "as §1, §2, §3"}, "SCaBER": {"tested_on": "SCaBER", "experiment": "MTT cell survival / IC50, SCaBER squamous carcinoma cells", "format": "cell-based, human", "method": "as §1, §2"}, "T24": {"tested_on": "T24", "experiment": "MTT cell survival / IC50, T24 cells", "format": "cell-based, human", "method": "as §1, §2, §3"}, "Notch pathway": {"tested_on": "Notch pathway", "experiment": "Cignal Finder dual-luciferase pathway reporter, Notch", "format": "cell-based, human", "set-up": "key to Relative activity, Notch reporter: firefly/renilla ratio, background (negative control) subtracted", "details": "for Relative activity, Notch reporter: luc/Renluc relative to negative control reporter, single drug at 4 folds vs EH/Ci/Mi combination", "method": "(§4) The pathway analysis was performed with Qiagen's Cignal Finder Pathway Reporter Array systems according to the manufacturer's instructions. The pathway-focused dual-luciferase reporter construct was a mixture of an inducible transcription factor responsive firefly luciferase reporter and constitutively expressing renilla construct. Transcriptional response element (TRE) sequence response elements to each specific transcriptional factor triggered by the different signaling pathways are positioned before the TATA box of firefly luciferase reporter gene. The extent of activity of the reporter reflects the level of activity of the particular signaling pathway. CMV controlled renilla expression vector is co-transfected into the cell as an internal control. Non-inducible reporter construct that lacks the transcriptional factor binding sequence and could not be induced by any transcription factors is used as a negative control. Cells transfected with CMV directed firefly luciferase reporter gene serve as a positive control. Briefly, cells seeded in 6-well plates were transfected with Cignal finder pathway arrays according to the manufacturer's instructions (Qiagen). Then cells were seeded onto 96-well plates. Ci (6000 ng/mL), Mi (800 ng/mL), or EH (1000 ng/mL) and Ci/Mi/EH combination (Ci, 1500 ng/mL, Mi, 800 ng/mL and EH, 1000 ng/m L) were then added to the cells 24 h post-transfection. After 6 h of incubation with the different drugs at 37° C., cells were lysed and a dual luciferase assay (for firefly and renilla luciferase) was performed using a PromegaGloMax 20/20 illuminometer. The firefly luciferase activities were normalized over the renilla luciferase activities after background activity determined by luciferase activities of negative controls was subtracted. A triple test of cell survival under these drug doses was also performed by MTT assay following 18 h incubation at 37° C. […]"}, "[1]": {"tested_on": "nine cancer-associated signaling pathways", "experiment": "Pearson correlation of collective drug-triggered pathway activities (single drug versus EH/Ci/Mi regimen)", "description": "To calculate the correlation coefficients between the two cell lines, the R language statistics function “cor{stats}” was used to generate the correlation matrix between multiple cell lines.\nThis example then determined the correlation coefficient between the overall activity of these nine pathways and the chemoresistance state of these five cell lines. […] The overall state of activity of these pathways in each cell line are summarized (FIG. 4E) and the correlation coefficient of each pair of cell lines is calculated (FIG. 4F)."}, "EJ": {"tested_on": "EJ", "experiment": "MTT cell survival / IC50, EJ cells", "format": "cell-based, human", "method": "as §1, §2, §3"}, "H-bc": {"tested_on": "H-bc", "experiment": "MTT cell survival / IC50, H-bc cells", "format": "cell-based, human", "method": "as §1, §2, §3"}, "Hypoxia pathway": {"tested_on": "Hypoxia pathway", "experiment": "Cignal Finder dual-luciferase pathway reporter, Hypoxia", "format": "cell-based, human", "set-up": "key to Relative activity, Hypoxia reporter: firefly/renilla ratio, background (negative control) subtracted", "details": "for Relative activity, Hypoxia reporter: luc/Renluc relative to negative control reporter, single drug at 4 folds vs EH/Ci/Mi combination", "method": "as §4"}, "[2]": {"details": "Table S3, ng/ml: Pi 40, Pa 160, EH 250, Ci 1500, Mi 200, 1=Ci/Mi, 2=EH/Ci/Mi, 3=Pa/Ci/Mi, 4=Pi/Ci/Mi"}, "[3]": {"details": "ng/ml: EH 1000, Ci 6000, Mi 800, Pi 160, Pa 640, Ge 20, EH/Ci/Mi regimen"}}}
{"smiles": "COc1cccc2c1C(=O)c1c(O)c3c(c(O)c1C2=O)C[C@@](O)(C(=O)CO)C[C@@H]3[C@@H]1C[C@H](N)[C@@H](O)[C@H](C)O1", "note": "[EH, (8R,10S)-10-((2S,4S,5R,6S)-4-amino-5-hydroxy-6-methyltetrahydro-2H-pyran-2-yl)-6,8,11-trihydroxy-8-(2-hydroxyacetyl)-1-methoxy-7,8,9,10-tetrahydrotetracene-5,12-dione]", "values": [{"measurement": "Cell survival (%)", "setting": "Biu87; Biu87, Table S3, ng/ml: Pi 40, Pa 160, EH 250, Ci 1500, Mi 200, 1=Ci/Mi, 2=EH/Ci/Mi, 3=Pa/Ci/Mi, 4=Pi/Ci/Mi", "result": 38.68, "unit": "%"}, {"measurement": "Single drug 4X Cell Survival (%)", "setting": "Biu87; Biu87, ng/ml: EH 1000, Ci 6000, Mi 800, Pi 160, Pa 640, Ge 20, EH/Ci/Mi regimen", "result": 23.24, "unit": "%"}, {"measurement": "Cell survival 72 hours", "setting": "Biu87; Biu87 cells, Table 4 (A)", "result": 23.24, "unit": "%"}, {"measurement": "ACS (%)", "setting": "Biu87; Biu87 cells, Table 4 (B)", "result": 23.24, "unit": "%"}, {"measurement": "Cell survival (%)", "setting": "5637; 5637, Table S3, ng/ml: Pi 40, Pa 160, EH 250, Ci 1500, Mi 200, 1=Ci/Mi, 2=EH/Ci/Mi, 3=Pa/Ci/Mi, 4=Pi/Ci/Mi", "result": 14.75, "unit": "%"}, {"measurement": "Single drug 4X Cell Survival (%)", "setting": "5637; 5637, ng/ml: EH 1000, Ci 6000, Mi 800, Pi 160, Pa 640, Ge 20, EH/Ci/Mi regimen", "result": 2.23, "unit": "%"}, {"measurement": "Cell survival 72 hours", "setting": "5637; 5637 cells, Table 4 (A)", "result": 2.23, "unit": "%"}, {"measurement": "ACS (%)", "setting": "5637; 5637 cells, Table 4 (B)", "result": 2.23, "unit": "%"}, {"measurement": "Cell survival (%)", "setting": "J-82", "result": 45.03, "unit": "%"}, {"measurement": "Cell survival (%)", "setting": "SCaBER; [2]", "result": 38.31, "unit": "%"}, {"measurement": "Single drug 4X Cell Survival (%)", "setting": "SCaBER; [3]", "result": 6.67, "unit": "%"}, {"measurement": "Cell survival (%)", "setting": "T24; [2]", "result": 20.13, "unit": "%"}, {"measurement": "Single drug 4X Cell Survival (%)", "setting": "T24; [3]", "result": 17.79, "unit": "%"}, {"measurement": "relative drug trigged pathway activity over the no-drug level, Notch", "setting": "Notch pathway; 5637 cells", "result": 1.92, "unit": "fold"}, {"measurement": "Relative activity, Notch reporter", "setting": "Notch pathway; 5637 cells", "result": 1.95}, {"measurement": "digitalized pathway activity, Notch", "setting": "Notch pathway; Biu87 cells", "result": "0 (null (0) if neither of the above holds)"}, {"measurement": "relative drug trigged pathway activity over the no-drug level, Notch", "setting": "Notch pathway; Biu87 cells", "result": 1.34, "unit": "fold"}, {"measurement": "Relative activity, Notch reporter", "setting": "Notch pathway; Biu87 cells", "result": 5.94}, {"measurement": "relative drug trigged pathway activity over the no-drug level, Notch", "setting": "Notch pathway; H-bc cells", "result": 1.6, "unit": "fold"}, {"measurement": "Relative activity, Notch reporter", "setting": "Notch pathway; H-bc cells", "result": 2.20}, {"measurement": "digitalized pathway activity, Notch", "setting": "Notch pathway; SV-HUC-1 cells", "result": "0 (null (0) if neither of the above holds)"}, {"measurement": "relative drug trigged pathway activity over the no-drug level, Notch", "setting": "Notch pathway; SV-HUC-1 cells", "result": 1.3, "unit": "fold"}, {"measurement": "Relative activity, Notch reporter", "setting": "Notch pathway; SV-HUC-1 cells", "result": 5.60}, {"measurement": "Relative activity, Notch reporter", "setting": "Notch pathway; UM-UC-3 cells", "result": 10.16}, {"measurement": "relative drug trigged pathway activity over the no-drug level, Notch", "setting": "Notch pathway; Um-Uc-3 cells", "result": 2.05, "unit": "fold"}, {"measurement": "Correlation coefficients versus EH/Ci/Mi", "setting": "[1]; 5637 cells", "result": 0.9177}, {"measurement": "Correlation coefficients versus EH/Ci/Mi", "setting": "[1]; Biu87 cells", "result": 0.982}, {"measurement": "Correlation coefficients versus EH/Ci/Mi", "setting": "[1]; H-bc cells", "result": 0.9707}, {"measurement": "Correlation coefficients versus EH/Ci/Mi", "setting": "[1]; SV-HUC-1 cells", "result": 0.9449}, {"measurement": "Correlation coefficients versus EH/Ci/Mi", "setting": "[1]; UmUc3 cells", "result": 0.3712}, {"measurement": "Cell survival (%)", "setting": "EJ; [2]", "result": 56.55, "unit": "%"}, {"measurement": "Single drug 4X Cell Survival (%)", "setting": "EJ; [3]", "result": 38.46, "unit": "%"}, {"measurement": "Cell survival 72 hours", "setting": "H-bc; H-bc cells, Table 4 (A)", "result": 2.60, "unit": "%"}, {"measurement": "ACS (%)", "setting": "H-bc; H-bc cells, Table 4 (B)", "result": 2.60, "unit": "%"}, {"measurement": "Cell survival (%)", "setting": "H-bc; H-bc, Table S3, ng/ml: Pi 40, Pa 160, EH 250, Ci 1500, Mi 200, 1=Ci/Mi, 2=EH/Ci/Mi, 3=Pa/Ci/Mi, 4=Pi/Ci/Mi", "result": 61.03, "unit": "%"}, {"measurement": "Single drug 4X Cell Survival (%)", "setting": "H-bc; H-bc, ng/ml: EH 1000, Ci 6000, Mi 800, Pi 160, Pa 640, Ge 20, EH/Ci/Mi regimen", "result": 2.6, "unit": "%"}, {"measurement": "relative drug trigged pathway activity over the no-drug level, Hypoxia", "setting": "Hypoxia pathway; 5637 cells", "result": 2.27, "unit": "fold"}, {"measurement": "Relative activity, Hypoxia reporter", "setting": "Hypoxia pathway; 5637 cells", "result": 51.46}, {"measurement": "relative drug trigged pathway activity over the no-drug level, Hypoxia", "setting": "Hypoxia pathway; Biu87 cells", "result": 2.26, "unit": "fold"}, {"measurement": "Relative activity, Hypoxia reporter", "setting": "Hypoxia pathway; Biu87 cells", "result": 17.13}, {"measurement": "relative drug trigged pathway activity over the no-drug level, Hypoxia", "setting": "Hypoxia pathway; H-bc cells", "result": 1.72, "unit": "fold"}, {"measurement": "Relative activity, Hypoxia reporter", "setting": "Hypoxia pathway; H-bc cells", "result": 57.60}, {"measurement": "relative drug trigged pathway activity over the no-drug level, Hypoxia", "setting": "Hypoxia pathway; SV-HUC-1 cells", "result": 1.74, "unit": "fold"}, {"measurement": "Relative activity, Hypoxia reporter", "setting": "Hypoxia pathway; SV-HUC-1 cells", "result": 44.00}, {"measurement": "digitalized pathway activity, Hypoxia", "setting": "Hypoxia pathway; UM-UC-3 cells", "result": "0 (null (0) if neither of the above holds)"}, {"measurement": "Relative activity, Hypoxia reporter", "setting": "Hypoxia pathway; UM-UC-3 cells", "result": 73.93}, {"measurement": "relative drug trigged pathway activity over the no-drug level, Hypoxia", "setting": "Hypoxia pathway; Um-Uc-3 cells", "result": 1.18, "unit": "fold"}]}
